From patent US20220275390A1, “RUBISCO-BINDING PROTEIN MOTIFS AND USES THEREOF” (The Trustees of Princeton University, priority 2019, published 2022)
Residues, ends and D or L forms follow the SMILES beside them.

Columns and labels:
C. reinhardtii cells = experiment: Confocal fluorescence microscopy localization of Venus fusion proteins; type: cell-based, Chlamydomonas reinhardtii; details: Venus fluorescence in C. reinhardtii cells
Excerpt: A synthetic […] (Invitrogen) containing a 643 bp restriction fragment containing the C-terminus of Venus, followed by the sequence coding for the FLAG-tag sequence, and a sequence coding for three repetitions of the 15 C-terminal amino acids of SAGA2, was cloned into pLM005-FDX1, after restriction digestion with EcoRl and PfIMI. GenBank accession number of the empty pLM005 is KX077945.1. The plasmid pLM005-FDX1 is identical to pLM005 with the genomic sequence of FDX1 cloned in frame by Gibson Assembly (Mackinder et al., PNAS 113: 5958-5963, 2015) between residues 2698 and 3234. The terminal 85 amino acids of resultant mature fusion protein, immediately downstream of the FLAG-tag, were a 5 aa linker (GGGGS; SEQ ID NO: 87), a first copy of SAGA2 15 C-terminal aa, followed by a 10 aa linker (2X GGGGS; SEQ ID NO: 88), a second copy of SAGA2 15 last aa, another 10 aa linker (2X GGGGS; SEQ ID NO: 88), and finally a third copy of SAGA2 15 last aa. The sequence of the EcoRI-PfIMI digestion fragment (SEQ ID NO: 89) was cloned in frame into pLM005-FDX1.
Culturing and Transformation of C. reinhardtii: Culturing and transformation of C. reinhardtii for fluorescence localization of protein and imaging was performed as described in Mackinder et al. (PNAS 113: 5958-5963, 2015). […]

Rubisco = molecular target: T1, Rubisco (Chlamydomonas reinhardtii, UniProt P00873); experiment: Surface plasmon resonance (SPR) assay of peptides binding to immobilized Rubisco
T1 construct: Rubisco was purified from Chlamydomonas reinhardtii strain cMJ030; endogenous in cells; host or cells: Chlamydomonas reinhardtii strain cMJ030 (wild type); holoenzyme purified from lysate by sucrose gradient and anion exchange
Protocol: Surface Plasmon Resonance (SPR) Assay Rubisco was immobilized on a surface and peptides in solution were flowed over the surface. Surface plasmon measurements of binding of individual peptides to Rubisco were assayed (FIG. 3B).
Rubisco was purified from Chlamydomonas reinhardtii strain cMJ030. Cells were disrupted by ultrasonication in lysis buffer (10 mM MgCl2, 50 mM Bicine, 10 mM NaHCO3, 1 mM dithiothreitol (DTT) pH 8.0) supplemented with Halt Protease Inhibitor Cocktail, EDTA-Free (Fisher Scientific). The soluble lysate was fractionated by ultracentrifuge in a 10%-30% sucrose gradient in a SW 41 Ti rotor at 35,000 rpm for 20 hours at 4° C. Rubisco-containing fractions were applied to an anion exchange column (MONO Q 5/50 GL, GE Healthcare) and fractionated by using a linear salt gradient from 0 to 0.5 M NaCl (10 mM MgCl2, 50 mM Bicine, 10 mM NaHCO3, 1 mM dithiothreitol pH 8.0).
Mutagenesis of EPYC1, Mutagenesis of Rubisco, Yeast Two-hybrid, Peptide Arrays and SPR Assays To determine the importance of individual EPYC1 residues for binding to Rubisco, the impact on Rubisco binding of every possible single amino acid substitution for EPYC1 RBM 2 was determined (FIG. 8). […]
SPR Assays: The Rubisco-binding capacity for the C-terminal motif variant (W[+]xxΨ ) was determined using SPR by probing purified Rubisco with fifteen amino acid-long synthetic peptides. […]

T1 sequence (P00873 46-185, other chains not shown): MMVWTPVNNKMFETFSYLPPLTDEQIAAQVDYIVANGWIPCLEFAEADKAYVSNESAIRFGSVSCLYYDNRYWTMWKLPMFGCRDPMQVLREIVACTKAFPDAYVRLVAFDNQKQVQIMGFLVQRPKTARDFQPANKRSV

Row | Compound | localization pattern within the pyrenoid (C. reinhardtii cells; FIG. 15) | localization (C. reinhardtii cells; FIGS. 14B and 15) | Kd (Rubisco; KD, 24 amino acid EPYC1 fragment spanning RBM 2 binding to Rubisco, FIG. 4C) | Kd (Rubisco; Kd, individual EPYC1 RBM peptides binding to Rubisco)
1 | RBMP2-Venus: Rubisco-Binding Membrane Protein 2 (SEQ ID NO: 2) fused to the Venus fluorescent protein | confined to the very heart of the pyrenoid | localized to the pyrenoid | – | –
2 | CC(C)C[C@H](NC(=O)[C@H](CO)NC(=O)[C@H](CCC(=O)O)NC(=O)[C@H](CC(C)C)NC(=O)[C@H](CCC(=O)O)NC(=O)[C@H](CCC(N)=O)NC(=O)[C@H](CCCNC(=N)N)NC(=O)[C@H](Cc1c[nH]c2ccccc12)NC(=O)[C@H](CC(N)=O)NC(=O)[C@H](C)NC(=O)[C@@H]1CCCN1C(=O)[C@H](CC(C)C)NC(=O)[C@@H](NC(=O)[C@H](CO)NC(=O)[C@H](CCCNC(=N)N)NC(=O)[C@@H](NC(=O)[C@@H]1CCCN1C(=O)[C@H](CO)NC(=O)[C@@H](NC(=O)[C@H](CCCNC(=N)N)NC(=O)[C@H](CC(N)=O)NC(=O)[C@@H](N)[C@@H](C)O)C(C)C)[C@@H](C)O)C(C)C)C(=O)N[C@@H](CCCNC(=N)N)C(=O)N[C@@H](CC(N)=O)C(=O)O [EPYC1 fragment] (H-TNRVSPTRSVLPANWRQELESLRN-OH) | – | – | 3.09 mM | 3 mM
